Data from ChEMBL document CHEMBL1132517, “Nitrobenzyl carbamate prodrugs of enediynes for nitroreductase gene-directed enzyme prodrug therapy (GDEPT)” (Bioorg Med Chem Lett, 1999).
Several values for one entry are separate records, joined by “and”; a condition that tells them apart may be missing. Equal values may be shown once.

Experiments:
[1] = (§1) Ratio of cytotoxicities against WiDr cell line to NTR transfectant; assay type: functional
[2] = Ratio of cytotoxicity against SKOV-3 cells in the absence of co-factor to the cytotoxicity in the presence of co-factor and NTR; assay type: functional, SK-OV-3
SK-OV-3 [3] = experiment: In vitro for cytotoxicity against SKOV-3 cells in the presence of 1 mM NADH co-factor and 1 ug/mL Escherichia coli B nitroreductase (NTR); assay type: functional, cell-based; conditions: Homo sapiens
WiDr [4] = experiment: In vitro cytotoxicity against man colon carcinoma line WiDr cell lines transfected with Escherichia coli B nitroreductase (NTR); assay type: functional, cell-based; conditions: Homo sapiens
[5] = Ratio of cytotoxicities against SKOV-3 cell line to NTR transfectant; assay type: functional, SK-OV-3
SK-OV-3 [6] = experiment: In vitro for cytotoxicity against SKOV-3 cells in the presence of 1 mM NADH co-factor; assay type: functional, cell-based; conditions: Homo sapiens
[7] = Ratio of cytotoxicities against T78-1 cell line to NTR transfectant; assay type: functional
T78-1 = experiment: In vitro cytotoxicity against Chinese hamster V79-derived cell line T78-1 transfected with Escherichia coli B nitroreductase (NTR); assay type: functional, cell-based; conditions: Cricetulus griseus
[8] = Oxygen dependence of cytotoxicity was assessed by clonogenic assay using stirred suspension cultures of AA8 cells after 1 hr under aerobic conditions; assay type: functional, Cricetulus griseus, CHO-AA8
[9] = Oxygen dependence of cytotoxicity was assessed by clonogenic assay using stirred suspension cultures of ERCC-1 mutant UV4 cells after 1 hr under anoxic conditions; assay type: functional, Cricetulus griseus
SK-OV-3 [10] = experiment: In vitro cytotoxicity against SKOV-3 cells in the presence of 1 mM NADH co-factor; assay type: functional, cell-based; conditions: Homo sapiens
WiDr [11] = experiment: as §1; assay type: functional, Homo sapiens
[12] = Oxygen dependence of cytotoxicity was assessed by clonogenic assay using stirred suspension cultures of ERCC-1 mutant UV4 cells after 1 hr under aerobic conditions; assay type: functional, Cricetulus griseus
[13] = Oxygen dependence of cytotoxicity was assessed by clonogenic assay using stirred suspension cultures of AA8 cells after 4 hr under anoxic conditions; assay type: functional, Cricetulus griseus, CHO-AA8
[14] = Ratio of oxygen dependence of cytotoxicities of UV4 cells in aerobic condition to anoxic condition; assay type: functional
SK-OV-3 [15] = experiment: In vitro cytotoxicity against SKOV-3 cells in the presence of 1 mM NADH co-factor and 1 ug/mL Escherichia coli B nitroreductase (NTR); assay type: functional, cell-based; conditions: Homo sapiens
SK-OV-3 [16] = experiment: In vitro cytotoxicity against SKOV-3 cells in the absence of co-factor; assay type: functional, cell-based; conditions: Homo sapiens
[17] = Oxygen dependence of cytotoxicity was assessed by clonogenic assay using stirred suspension cultures of AA8 cells after 4 hr under aerobic conditions; assay type: functional, Cricetulus griseus, CHO-AA8
[18] = Oxygen dependence of cytotoxicity was assessed by clonogenic assay using stirred suspension cultures of ERCC-1 mutant UV4 cells after 4 hr under anoxic conditions; assay type: functional, Cricetulus griseus
[19] = Oxygen dependence of cytotoxicity was assessed by clonogenic assay using stirred suspension cultures of AA8 cells after 1 hr under anoxic conditions; assay type: functional, Cricetulus griseus, CHO-AA8
[20] = Oxygen dependence of cytotoxicity was assessed by clonogenic assay using stirred suspension cultures of ERCC-1 mutant UV4 cells after 4 hr under aerobic conditions; assay type: functional, Cricetulus griseus
[21] = Oxygen dependence of cytotoxicity was assessed by clonogenic assay using stirred suspension cultures of AA8 cells after 3h under anoxic conditions; assay type: functional, Cricetulus griseus, CHO-AA8
[22] = Oxygen dependence of cytotoxicity was assessed by clonogenic assay using stirred suspension cultures of AA8 cells after 3h under aerobic conditions; assay type: functional, Cricetulus griseus, CHO-AA8
[23] = Ratio of oxygen dependence of cytotoxicities of AA8 cells in aerobic condition to anoxic condition; assay type: functional, Cricetulus griseus, CHO-AA8
[24] = Oxygen dependence of cytotoxicity was assessed by clonogenic assay using stirred suspension cultures of ERCC-1 mutant UV4 cells after 3h under aerobic conditions; assay type: functional, Cricetulus griseus
[25] = Oxygen dependence of cytotoxicity was assessed by clonogenic assay using stirred suspension cultures of ERCC-1 mutant UV4 cells after 3h under anoxic conditions; assay type: functional, Cricetulus griseus
[26] = Oxygen dependence of cytotoxicity was assessed by clonogenic assay using stirred suspension cultures of ERCC-1 mutant UV4 cells after 8 hr under anoxic conditions; assay type: functional, Cricetulus griseus
[27] = Oxygen dependence of cytotoxicity was assessed by clonogenic assay using stirred suspension cultures of ERCC-1 mutant UV4 cells after 8 hr under aerobic conditions; assay type: functional, Cricetulus griseus

SMILES: NC(=O)c1cc(N2CC2)c([N+](=O)[O-])cc1[N+](=O)[O-] [TRETAZICAR]
- Selectivity [1]: 51
- Selectivity [2]: 183
- IC50 (SK-OV-3 [3]): 1010 nM
- IC50 (WiDr [4]): 565000 nM
- Selectivity [5]: 357
- IC50 (SK-OV-3 [6]): 760 nM
- Selectivity [7]: 1630

SMILES: O=C(OCc1ccc([N+](=O)[O-])cc1)N1c2ccc(OCCO)cc2[C@@]23O[C@]24CCC[C@H]3C#C/C=C\C#C[C@H]14
- IC50 (T78-1): 2400 nM
- C10 air [8]: 75 µM
- C10 N2 [9]: 60 µM
- IC50 (SK-OV-3 [10]): 500 nM
- Selectivity (WiDr [11]): 135
- Selectivity [2]: 13
- C10 air [12]: 40 µM
- IC50 (WiDr [4]): 1810 nM
- C10 N2 [13]: >100 µM
- C10 air/C10 N2 [14]: 1.5 and 1.1
- Selectivity [5]: 21.3
- IC50 (SK-OV-3 [15]): 39 nM
- IC50 (SK-OV-3 [16]): 500 nM
- C10 air [17]: 22 µM
- C10 N2 [18]: 12 µM
- Selectivity [7]: 111
- C10 N2 [19]: >100 µM
- C10 air [20]: 11 µM

SMILES: O=C(OCc1ccccc1[N+](=O)[O-])N1c2ccccc2[C@@]23O[C@]24CCC[C@H]3C#C/C=C\C#C[C@H]14
- IC50 (T78-1): 8900 nM
- C10 N2 [21]: 200 µM
- IC50 (SK-OV-3 [10]): > 20000 nM
- IC50 (WiDr [4]): > 20000 nM
- C10 air/C10 N2 [14]: 0.4
- C10 air [22]: 120 µM
- IC50 (SK-OV-3 [15]): > 20000 nM
- C10 air/C10 N2 [23]: >1.7
- IC50 (SK-OV-3 [16]): > 20000 nM
- C10 air [24]: 140 µM
- Selectivity [7]: 1.9
- C10 N2 [25]: 53 µM

SMILES: O=C(OCc1ccc([N+](=O)[O-])cc1)N1c2ccccc2[C@@]23O[C@]24CCC[C@H]3C#C/C=C\C#C[C@H]14
- IC50 (T78-1): 11100 nM
- C10 N2 [21]: >100 µM
- Selectivity [1]: 97
- IC50 (SK-OV-3 [10]): > 20000 nM
- Selectivity [2]: 95.9
- C10 N2 [26]: 70 µM
- IC50 (WiDr [4]): 8400 nM
- ratio [14]: 1
- C10 air [22]: >100 µM
- Selectivity [5]: 264
- IC50 (SK-OV-3 [15]): 260 nM
- IC50 (SK-OV-3 [16]): 20400 nM
- C10 air [24]: >100 µM
- C10 air [27]: 70 µM
- Selectivity [7]: 54
- C10 N2 [25]: >100 µM
